Assay results reported in patent US20140227208A1, “COSMETIC COMPOSITIONS CONTAINING SUBSTITUTED AZOLE AND METHODS FOR ALLEVIATING MECHANICALLY-INDUCED SKIN INFLAMMATION” (The Procter & Gamble Company, priority 2013, published 2014).
Like-named read-outs stand apart in the source and are kept apart here. Values belong to the molecule of their own block, whether it stands above or below them.

What was measured:
CYP3A4 = CYP3A4 (Homo sapiens, UniProt P08684); assay: In vitro CYP/CYP3A4 inhibition assay (P450-GLO Assay kit, Promega)
Text: The metabolism of retinoic acid and vitamin D in the skin is incompletely understood, but there is evidence for the involvement of CYP26A1, CYP3A4 and CYP2C8 in catalyzing the 4-hydroxylation of all-trans RA to 4-hydroxy-RA. It is believed, without being limited by theory, that CYP3A4 may be particularly important for ATRA metabolism in the skin. This is because CYP3A4 is expressed in skin, involved in RA metabolism, a CYP with one of the broadest substrate specificities of all of the known CYPs and available as a human recombinant protein in a commercial kit. Thus, a commercially available CYP3A4 assay was used as a surrogate to predict RAMBA potential in the skin.
The commercially available P450-GLO™ Assay kit (Promega Corporation, Madison Wis.) was used to screen various compounds for potential CYP activity, specifically CYP3A4A inhibition activity. CYP3A4A is thought to be among the primary CYP isoforms responsible for retinoic acid metabolism in the skin.
The commercially available P450-GLO™ Assay kit (Promega Corporation, Madison Wis.) was used to screen various compounds for potential CYP activity, specifically CYP3A4A inhibition activity. CYP3A4A is thought to be one of the primary CYP isoforms responsible for retinoic acid metabolism in the skin.

[1] = test system: ATRA 4-hydroxylase activity (CYP) of pig liver microsomes; assay: In vitro ATRA 4-hydroxylase (CYP) inhibition assay using pig liver microsomes; settings: for IC50: 90 min
Text: Cytochrome P450 is a large and diverse group of enzymes that catalyze the oxidation of organic substances. […] Applicant evaluated the potential RAMBA activity of several azoles using pig liver microsomes, a rich source of CYP activity, comprising many different CYP 450 isoforms. […] As understanding in this area has progressed, a more specific CYP inhibition assay can be used to provide better predictivity of activity in human skin. Nevertheless, this assay may still be used as a general predictor of overall CYP activity.
Microsomal preparation: One lobe of fresh pig liver was obtained at the time of slaughter from a food-processing company and immediately placed in ice cold 15 mM KH2PO4/250 mM sucrose (pH 7.4) and kept on ice during transportation. A 10 g sample of liver was minced and homogenized in 30 mls of homogenization buffer (15 mM KH2PO4/250 mM sucrose) using a Tekmar homoginizer by pulsing 3 times 20 second pulses. […] The remaining pig liver was cut into 10-g pieces and wrapped in aluminum foil and stored at −80° C. The homogenates from the 8 samples were pooled and centrifuged at 13,000×g for 20 minutes at 4° C. to remove crude debris and the supernatant was further centrifuged at 100,000×g for 70 minutes at 4° C. The microsomal pellets were resuspended into 50 mls of 150 mM KH2PO4/1 mM DTT (pH 7.4) and 1 mL aliquots were stored at −80° C. In vitro 4-hydroxylase activity assay: All procedures were carried out under minimal light in order to prevent degradation of the retinoid samples. The ATRA 4-hydroxylase assay can be described briefly as follows: 100-150 μg of pig liver microsomal protein in 150 mM KH2PO4 was incubated at 37° C. in the presence of radiolabeled ATRA and 5 mM NADPH for 90 min. The final ATRA concentration was 1 μM, as a combination of [20-Methyl-^3H]ATRA and unlabeled ATRA. Initially radiolabeled ATRA was used to assist in validating the method. Once retention times of retinoid metabolites were identified unlabeled ATRA was used for screening. Compounds tested as possible competitive substrates were added to the assay 10 min prior to the addition of ATRA. Ethanol, containing 0.1% butylated hydroxytoluene (BHT) as an antioxidant, was used to stop the reactions. For recovery of ATRA the pH of reactions were adjusted to 3.0 before extraction with 0.1N HCl. Retinoids were extracted from the protein aqueous phase with 4 mls hexane, 1 ml 100 μg/ml BHT in water (pH 3). An additional 4 mls of hexane (pH 3) was used for a second extraction. The organic extractions were pooled, evaporated to dryness using a speed vac, and resuspended in 62.5 μl acetonitrile containing 1 mg/ml BHT. Samples were analyzed by HPLC. […] Mobile phases used for gradient elution of retinoids were those of Duell et al., J. Clin. Invest. […] Mobile phase A was acetonitrile:0.02 M ammonium acetate:acetic acid (1:1:0.01) and mobile phase B was acetonitrile:0.2M ammonium acetate;acetic acid (19:1:0.008). […] Because of the sensitivity limitations of the β-RAM spectrometer, it was not used to quantitate peak areas but rather to confirm ATRA and ATRA 4-hydroxylase activity. Calculated peaks areas (using Millenium software—Waters Corp.) of ATRA and ATRA metabolites were used to quantify relative activity levels.

[2] = test system: mechanically-induced skin inflammation (shaving); assay: Method of treatment: shaving cream and leave-on skin cream applied to facial and neck regions; format: in vivo, human; settings: 0.55% by weight in shaving cream before and leave-on cream after shaving, topical, 8 weeks
Text: A test subject topically applies a shaving cream composition comprising 0.55% 1-phenylimidazole, by weight in a vehicle, to the facial and neck regions prior to shaving. A leave-on skin cream comprising 0.55% 1-phenylimidazole, by weight in a vehicle, is applied to the same facial and neck regions after shaving.

[3] = IC50 (uM), CYP3A4 inhibition, P450-GLO Assay kit, human recombinant CYP3A4
[4] = read-out: IC50 (μM), in vitro 4-hydroxylase inhibition assay, pig liver microsomes, 1 μM ATRA, 5 mM NADPH, 37° C.
[5] = P450-GLO Assay kit, human recombinant CYP3A4
[6] = read-out: IC50 (uM), CYP3A4 inhibition, P450-GLO Assay kit, human recombinant CYP3A4

CYP3A4, sequence (P08684 whole entry): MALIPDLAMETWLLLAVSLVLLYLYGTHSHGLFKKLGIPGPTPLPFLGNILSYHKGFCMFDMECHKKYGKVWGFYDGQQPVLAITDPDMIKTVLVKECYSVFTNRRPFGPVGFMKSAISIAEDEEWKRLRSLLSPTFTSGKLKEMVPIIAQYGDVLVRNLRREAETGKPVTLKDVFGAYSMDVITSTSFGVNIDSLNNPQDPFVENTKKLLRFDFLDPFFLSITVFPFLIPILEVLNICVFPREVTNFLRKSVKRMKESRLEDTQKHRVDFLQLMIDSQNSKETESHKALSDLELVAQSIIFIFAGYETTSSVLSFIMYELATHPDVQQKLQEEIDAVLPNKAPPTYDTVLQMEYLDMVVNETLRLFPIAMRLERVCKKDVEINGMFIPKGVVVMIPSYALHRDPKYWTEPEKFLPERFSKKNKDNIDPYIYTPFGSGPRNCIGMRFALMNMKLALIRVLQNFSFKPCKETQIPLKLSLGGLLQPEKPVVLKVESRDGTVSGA

Molecule: C=Cn1ccnc1 [1-Vinylimidazole]
- IC50 (CYP3A4; [3]): > 10 µM

Molecule: c1ccc(Cn2ccnc2)cc1 [1-benzylimidazole]
- IC50 [1, 4]: 77.5 µM

Molecule: c1ccc(-n2ccnc2)cc1 [1-phenylimidazole]
- inhibitory activity in the CYP3A4 assay (in words) (CYP3A4; P450-GLO Assay kit): showed inhibitory activity
- Hit / no hit for inhibition of CYP3A4 (CYP3A4; [5]): Hit
- IC50 (CYP3A4; human, recombinant enzyme): 1 µM
- CYP inhibitory activity (in words), 4-hydroxylase assay ([1]; pig liver microsomes): IC50 values in the same range as climbazole
- IC50 [1, 4]: 52.5 µM
- facial and neck skin inflammation noted by the subject [2]: significantly less inflamed

Molecule: O=C(n1ccnc1)n1ccnc1 [1′-1-Carbonylimidazole]
- IC50 (CYP3A4; [3]): > 10 µM

Molecule: Clc1ccccc1-c1nc2ccccc2[nH]1 [2-(2-Chlorophenyl) benzimidazole]
- IC50 (CYP3A4; [3]): > 10 µM

Molecule: c1ccc(-c2ncc[nH]2)cc1 [2-phenylimidazole]
- IC50 (CYP3A4): > 10 µM
- inhibitory activity in the CYP3A4 assay (in words) (CYP3A4): did not
- CYP inhibitory activity (in words), 4-hydroxylase assay ([1]; pig liver microsomes): lacked any significant inhibitory activity
- IC50 [1, 4]: > 500 µM

Molecule: c1ccc(-c2nc[nH]c2-c2ccccc2)cc1 [4,5-diphenylimidazole]
- IC50 ([1]; pig): 100 µM

Molecule: c1ccc(-c2c[nH]cn2)cc1 [4-phenylimidazole]
- CYP inhibitory activity (in words), 4-hydroxylase assay ([1]; pig liver microsomes): IC50 values in the same range as climbazole

Molecule: CC(=O)c1ccc(-n2ccnc2)cc1 [4′-(Imidazol-1yl) acetophenome]
- IC50 (CYP3A4; [3]): 0.8 µM
- Hit / no hit for inhibition of CYP3A4 (CYP3A4; human, recombinant enzyme): Hit

Molecule: CC1=N[C@H](C(=O)O)CCN1 [Ectoine]
- IC50 (CYP3A4; [3]): > 10 µM

Molecule: c1coc(-c2nc3ccccc3[nH]2)c1 [Fuberidazole]
- IC50 (CYP3A4): > 10 µM
- Hit / no hit for inhibition of CYP3A4 (CYP3A4; human, recombinant enzyme): no hit >10 uM (key: hit: strong inhibition (IC50 value<10 μM); no hit: weak/no inhibition (IC50 value>10 μM))

Molecule: N=C(N)c1ccc(OCCCCCCOc2ccc(C(=N)N)cc2)cc1 [Hexamidine diisethionate]
- IC50 (CYP3A4; [3]): > 10 µM

Molecule: c1ccc(-c2n[nH]cc2-c2ccnc3ccccc23)nc1 [LY-364947]
- IC50 (CYP3A4): > 10 µM

Molecule: Cc1cccc(C)c1N(Cn1cccn1)C(=O)CCl [Metazachlor]
- IC50 (CYP3A4): > 10 µM
- Hit / no hit for inhibition of CYP3A4 (CYP3A4; human, recombinant enzyme): no hit >10UM (key: hit: strong inhibition (IC50 value<10 μM); no hit: weak/no inhibition (IC50 value>10 μM))

Molecule: Cc1ccc2cc3c(ccc4ccccc43)c3c2c1CC3 [Methylcholanthrene]
- Hit / no hit for inhibition of CYP3A4 (CYP3A4; [5]): Near Hit

Molecule: CCc1cccc(C)c1N(C(=O)CCl)C(C)COC (centres unmarked) [Metolachlor]
- IC50 (CYP3A4): > 10 µM
- Hit / no hit for inhibition of CYP3A4 (CYP3A4; [5]): no hit (weak/no inhibition (IC50 value>10 μM))

Molecule: CC(C)(C(=O)c1cccnc1)c1cccnc1 [Metyrapone]
- IC50 (CYP3A4): 3 µM
- Hit / no hit for inhibition of CYP3A4 (CYP3A4; human, recombinant enzyme): Hit

Molecule: Clc1ccc(COC(Cn2ccnc2)c2ccc(Cl)cc2Cl)c(Cl)c1 (centres unmarked) [Miconazole]
- Hit / no hit for inhibition of CYP3A4 (CYP3A4; human, recombinant enzyme): Hit 5 uM

Molecule: NCCCn1ccnc1 [N-(3-Aminopropyl) imidazole]
- IC50 (CYP3A4): > 10 µM

Molecule: CC(=O)/C=C/C1=C(C)CCCC1(C)C [β-Ionone]
- IC50 (CYP3A4; [3]): > 10 µM

Molecule: Benomyl
- Hit / no hit for inhibition of CYP3A4 (CYP3A4; [5]): no hit (weak/no inhibition (IC50 value>10 μM))
- IC50 (CYP3A4; [6]): > 10 µM

Molecule: Glutamylamidoethyl imidazole
- Hit / no hit for inhibition of CYP3A4 (CYP3A4; [5]): no hit (weak/no inhibition (IC50 value>10 μM))
- IC50 (CYP3A4; [6]): > 10 µM

Molecule: Piperine
- Hit / no hit for inhibition of CYP3A4 (CYP3A4; [5]): Hit
- IC50 (CYP3A4; [6]): ~10 µM

Further lines, results first:

- IC50 (CYP3A4; [3]): > 10 µM
Molecule: CC(=O)n1ccnc1 [1-Acetylimidazole]

- IC50 (CYP3A4): > 10 µM
Molecule: Cn1ccnc1 [1-Methylimidazole]

- IC50 ([1]; pig): 308 µM
Molecule: Cc1nccn1Cc1ccccc1 [1-benzyl-2-methylimidazole]

- IC50 (CYP3A4): > 10 µM
Molecule: CCCCc1nc(C=O)c(Cl)[nH]1 [2-Butyl-4-chloro-5-formylimidazole]

- IC50 (CYP3A4; [3]): > 10 µM
Molecule: CCc1nc(C)c[nH]1 [2-Ethyl-4-methylimidazole]

- IC50 (CYP3A4): > 10 µM
Molecule: CCc1ncc[nH]1 [2-Ethylimidazole]

- IC50 (CYP3A4; [3]): > 10 µM
Molecule: Cc1ncc[nH]1 [2-Methylimidazole]

- IC50 (CYP3A4; [3]): > 10 µM
Molecule: Clc1ncnc2[nH]cnc12 [6-Chloropurine]

- IC50 (CYP3A4): > 10 µM
Molecule: Nc1nc[nH]n1 [Amitrol]

- IC50 (CYP3A4; [3]): > 10 µM
Molecule: c1ccc2[nH]cnc2c1 [Benzimidazole]

- IC50 (CYP3A4; [3]): > 10 µM
Molecule: N[C@@H](Cc1c[nH]cn1)C(=O)O [Histidine]
